In ChEMBL document CHEMBL3875176, “Synthesis and evaluation of in vitro antiproliferative activity of new ethyl 3-(arylethynyl)quinoxaline-2-carboxylate and pyrido[4,3-b]quinoxalin-1(2H)-one derivatives” (Eur J Med Chem, 2016) one finds IC50 data, which are given here for 11 compounds.

Test [1] can be described thus: Antiproliferative activity against human A549 cells after 72 hrs by MTT assay. The conditions noted are these: A549, 72 h. The class given is functional, cell-based.
Test [2] is described as follows: Antiproliferative activity against human U87MG cells after 72 hrs by MTT assay. The class given is functional, cell-based, U-87MG ATCC. The conditions noted are these: U-87 MG.

For the compound `CCOC(=O)c1nc2ccccc2nc1C#Cc1ccccc1`, the IC50 in test [1] and in test [2] was 3.3 µM in each case.
Consider `O=c1c2nc3ccccc3nc2cc(-c2ccccc2)n1-c1ccccc1`, for which the IC50 in test [1] came out at 46.4 µM; in test [2], 21.3 µM.
As for `Cc1ccc(-c2cc3nc4ccccc4nc3c(=O)n2-c2ccccc2)cc1`, the 50% inhibitory concentration (IC50) came out at 39.6 µM in test [1] and 23.7 µM in test [2].
On the same counts, the results for `CCOC(=O)c1nc2ccccc2nc1C#Cc1ccccc1OC` are 7.9 µM and 11.6 µM.
On the same counts, the results for `CCOC(=O)c1nc2ccccc2nc1C#CC1CC1` are 7.6 µM and 6.2 µM.
On the same counts, the results for `CCOC(=O)c1nc2ccccc2nc1C#Cc1ccccc1C` are 27 µM and 31.6 µM.
In the case of `CCOC(=O)c1nc2ccccc2nc1C#Cc1cccc(F)c1`, the IC50 in test [1] is 3 µM; in test [2], 1.9 µM.
For `CCOC(=O)c1nc2ccccc2nc1C#Cc1ccc(C)cc1` the same measures were 3.3 µM and 3.3 µM.
On the same counts, the results for `CCOC(=O)c1nc2ccccc2nc1C#Cc1cccc(C)c1` are 6.5 µM and 5.5 µM.
For `O=c1c2nc3ccccc3nc2cc(-c2ccccc2)n1-c1ccc(Cl)cc1`, the IC50 in test [1] came to 43 µM; in test [2], 34.6 µM.
Consider `CCOC(=O)c1nc2ccccc2nc1C#CC1CCCC1`, for which the IC50 in test [1] was found to be 11.2 µM; in test [2], 11.4 µM.
